The subject of series [1] is herpes simplex virus type 1 (Miyama strain). Kind of series: Antiviral activity against HSV-1 in vitro, inhibition of virus-induced CPE in GMK cells (Test Example 2). Format: cell-based, HSV-1 (Miyama strain). The note with it: 0.5% fetal bovine serum. Here is the method:
(§1) Confluent GMK cells (derived from green monkey kidney) in 96-well plates were infected with HSV-1 (Miyama strain) in the presence of various concentrations of test compounds. After incubation, virus-induced cytopathic effect (CPE), inhibitory effect of CPE by the test compound and cytotoxicity were microscopically observed. The virus titer (TCID₅₀) was determined from CPE of virus infected culture. Ancivirus effects of test compounds were calculated from TCID₅₀ values of test compound treated and control cultures and represented by ΔTCID₅₀(log₁₀). Test compounds were dissolved in MEM medium, ethanol or DMSO to 10 mg/ml, and diluted with MEM medium supplemented with 0.5% fetal bovine serum.

The subject of a further series is MT-4 cells. In words: Minimum cytotoxic concentration in MT-4 cells. The format is cell-based, human. Here is the method:
MT-4 cells (lymphoma derived from human T cell leukemia) in 96-well plate were infected with […] in the presence of various concentrations of test compounds. After incubation, inhibitory effect of HIV-induced CPE by the test compounds and cytotoxicity were microscopically observed. […] TABLE 6 In Table 6, parentheses indicate the minimum cytotoxic concentration of test compounds.

The test system of a further series is HIV. Kind of series: Inhibition of HIV-induced cytopathogenicity in MT-4 cells. Format: cell-based. Here is the method:
MT-4 cells (lymphoma derived from human T cell leukemia) in 96-well plate were infected with […] in the presence of various concentrations of test compounds. After incubation, inhibitory effect of HIV-induced CPE by the test compounds and cytotoxicity were microscopically observed. […]
Further, since the compounds of the present invention have a chemical structure different from the conventional antiviral substances, it is useful for the prevention or treatment of the infectious diseases caused by viruses resistant to the conventional antiviral substances.
For orientation: Cytopathic effects are the visible damage that an infection or toxin causes in cultured cells.

Series [2] has as its system GMK cells. Kind of series: Cytotoxicity observed microscopically in GMK cells (Test Example 2). Format: cell-based, green monkey. More on the design: key: -: no cytotoxicity; ±: slight cytotoxicity; +: cytotoxicity with observable antiviral effect. To be noted: in parentheses. The protocol:
as §1
In Table 4, parentheses indicate the cytotoxicity of these compounds. (-), (±) and (+) indicate no cytotoxicity, slight cytotoxicity and cytotoxicity with observable antiviral effect, respectively.

The subject of series [3] is GMK cells. In words: Cytotoxicity observed microscopically in GMK cells (Test Example 1). Format: cell-based, green monkey. The note with it: GMK cells, in parentheses. Here is the method: (§2) Confluent GMK cells (derived from green monkey kidney) in 96-well plates were infected with HSV-1 (Miyama strain) in the presence of various concentrations of test compounds. […] The virus titer (TCID₅₀) was determined from CPE of virus infected culture. Antivirus effects of test compounds were calculated from TCID₅₀ values of test compound treated and control cultures and represented by ΔTCID₅₀(log₁₀). Test compounds were dissolved in MEM medium, ethanol or DMSO to 10 mg/ml, and diluted with MEM medium supplemented with 1% fetal bovineserum.
In Table 1, parentheses indicate the cytotoxicity of these compounds. (-) and (±) indicate no cytotoxicity and slight cytotoxicity, respectively.

Series [4] has as its system herpes simplex virus type 1 (Miyama strain). Kind of series: Antiviral activity against HSV-1 in vitro, inhibition of virus-induced CPE in GMK cells (Test Example 1). The format is cell-based, HSV-1 (Miyama strain). The note with it: Human alphaherpesvirus 1, GMK cells, 1% fetal bovine serum, read-out: Antiviral Activity (ΔTCID₅₀(log₁₀)). Here is the method: as §2
The next series concerns HSV-1 (Miyama strain). Kind of series: Anti HSV-1 activity in vivo, intraperitoneally infected mice. Set-up: species or system Male BALB/c mice. To be noted: 322 PFU (10LD₅₀) HSV-1. The protocol: Male BALB/c mice (5 weeks of age) were intraperitoneally infected with 322 PFU (plaque forming unit, 10LD₅₀) of HSV-1 (Miyama strain). Twenty one days later, survival ratio and mean survival days were evaluated. Test compounds were dispersed in 5% arabic gum/physiological saline, and intraperitoneally administered at 10 mg and 20 mg/kg. Treatment began just after virus inoculation and continued for 5 days.

Setting [5] is: Human immunodeficiency virus 1, read-out: Anti-HIV Activity (MIC, µg/ml).
Setting [6] is: Human immunodeficiency virus 1, MT-4 cells, minimum inhibitory concentration, read-out: Anti-HIV Activity (MIC, µg/ml).
The mark [7] stands for this setting: 10 mg/kg intraperitoneally for 5 days.
Setting [8] is: 20 mg/kg intraperitoneally for 5 days.

Converted amounts (≈) assume the structure as drawn. Read-outs that look alike come from different tables or passages of the source.

Turning to `CC[C@@]12C=C(C(=O)OCCN3CCN(c4ccccc4Cl)CC3)n3c4c(c5ccccc53)CCN(CCC1)[C@H]42` [Compound of Example 28, (3α,16α)-Eburunamenine-14-carboxylic acid 2-[4-(2-chlorophenyl)piperazine-1-yl]ethyl ester], the results for the “Antiviral Activity (ΔTCID₅₀(log₁₀))” value in series [1] (5 µg/ml) and in series [1] (10 µg/ml) were 2.00 log₁₀ and 3.00 log₁₀, respectively. The molecule further registered a minimum cytotoxic concentration in the series with MT-4 cells of 63 µg/mL. Further, the MIC in the series with HIV (setting [5]) came out at 4 µg/mL (≈ 7.34 µM). Also, the figures for the cytotoxicity entry in the series on GMK cells [2] (5 µg/ml) and with GMK cells [2] (10 µg/ml) were “-” and “+”, respectively.
As to `COc1cc2c(=O)n(N3CCN(c4ccccc4C(F)(F)F)CC3)ncc2c(OC)c1OC` [Compound of Example 19, 2-[4-(2-Trifluoromethylphenyl)-1-piperazinyl]-5,6,7-trimethoxy-1(2H)-phthalazinone], the “Antiviral Activity (ΔTCID₅₀(log₁₀))” value in series [1] (5 µg/ml) is on record as 1.17 log₁₀; in series [1] (10 µg/ml), greater than 3.00 log₁₀. Besides, the minimum cytotoxic concentration with MT-4 cells (MT-4 cells, in parentheses) was greater than 125 µg/mL. In the series with HIV (setting [6]), the MIC came to 31 µg/mL (≈ 66.7 µM). In addition, the figures for the cytotoxicity entry in the series with GMK cells [2] (5 µg/ml) and in the series with GMK cells [2] (10 µg/ml) were “-” and “+”, respectively.
As to `CCCCCCCC(=O)N1CCN(c2ccccc2C(F)(F)F)CC1` [Compound of Example 16, 1-(2-Trifluoromethylphenyl)-4-octanoylpiperazine], the “Antiviral Activity (ΔTCID₅₀(log₁₀))” value in series [1] (5 µg/ml) is reported as 2.16 log₁₀; in series [1] (10 µg/ml), greater than 3.00 log₁₀. The minimum cytotoxic concentration with MT-4 cells (MT-4 cells, in parentheses) amounted to 125 µg/mL. The MIC with HIV (setting [6]) is greater than 63 µg/mL. For the same molecule, the results for the cytotoxicity result with GMK cells [2] (5 µg/ml) and in the series with GMK cells [2] (10 µg/ml) were “-” and “+”, respectively.
In the case of `CC[C@@]12C=C(C(=O)OCCN3CCN(c4ccccc4OC)CC3)n3c4c(c5ccccc53)CCN(CCC1)[C@H]42` [Compound of Example 27, (3α,16α)-Eburunamenine-14-carboxylic acid 2-[4-(2-methoxyphenyl)piperazine-1-yl]ethyl ester], the “Antiviral Activity (ΔTCID₅₀(log₁₀))” value in series [1] (5 µg/ml) is 1.00 log₁₀; in series [1] (10 µg/ml), 3.00 log₁₀. The molecule also had a minimum cytotoxic concentration with MT-4 cells of 63 µg/mL. The MIC in the series with HIV (setting [5]) worked out at 8 µg/mL (≈ 14.8 µM). Further, the values for the cytotoxicity result in the series with GMK cells [2] (5 µg/ml) and in the series with GMK cells [2] (10 µg/ml) were “-” and “±”, respectively.
Regarding `CCCCC/C=C\C/C=C\CCCCCCCC(=O)N1CCN(c2ccccc2Cl)CC1` [Compound of Example 8, 1-(2-Chlorophenyl)-4-[(Z,Z)-9,12-octadecadienoyl]piperazine], in the series on GMK cells [3] (10 µg/ml), the cytotoxicity result is reported as “-”. In the series with MT-4 cells (MT-4 cells, in parentheses), the minimum cytotoxic concentration was greater than 125 µg/mL. Further, the log reduction at 10 µg/mL in series [4] was 2. In the series with HSV-1 (Miyama strain) (setting [7]), the “Mean Survival Days” value was 13.7 ± 1.6 days and the “Survival Ratio at 21 days (%)” value was found to be 20%. Further, in the series with HSV-1 (Miyama strain) (setting [8]), the “Mean Survival Days” value stood at 16.4 ± 2.0 days and the “Survival Ratio at 21 days (%)” value is on record as 40%. Further, the MIC in the series on HIV (setting [6]) came to 16 µg/mL (≈ 34.8 µM).
In the case of `CCCCCCCC(=O)N1CCN(c2ccccc2Cl)CC1` [Compound of Example 9, 1-(2-Chlorophenyl)-4-octanoylpiperazine], the cytotoxicity entry in the series on GMK cells [3] (5 µg/ml) is “-”; in the series on GMK cells [3] (10 µg/ml), “±”. In addition, in the series with MT-4 cells (MT-4 cells, in parentheses), the minimum cytotoxic concentration was greater than 250 µg/mL. Besides, the log reduction at 5 µg/mL in series [4] (5 µg/ml) was 0.83. Moreover, in series [4], the log reduction at 10 µg/mL is greater than 3. Further, the “Mean Survival Days” value with HSV-1 (Miyama strain) (setting [7]) stood at 14.2 ± 1.5 days; with HSV-1 (Miyama strain) (setting [8]), 18.7 ± 1.8 days. Also, the “Survival Ratio at 21 days (%)” value in the series on HSV-1 (Miyama strain) (setting [7]) is 20%; with HSV-1 (Miyama strain) (setting [8]), 60%. In addition, the MIC in the series with HIV (setting [6]) was greater than 125 µg/mL.

These data come from patent EP0548798A1, “Antiviral agent” (SANWA KAGAKU KENKYUSHO CO., LTD., priority 1991, dated 1993).
